Laboratory results from PubChem BioAssay (NCI).
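Five compound concentrations were applied to cells in 96-well plates for 48 hours; endpoints were derived by simple linear interpolation of the resulting dose-response curve. The concentration for full growth arrest is given as TGI.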 Where a SMILES comes first, the peptide text is derived from it. [ ]: non-standard residue; d: D form. The star is where a group is joined. ξ: configuration not given here. NMeF = CN[C@@H](Cc1ccccc1)C(=O)O; ξNMeV = CNC(C(=O)O)C(C)C; Boc = CC(C)(C)OC(=O)*; OBn = c1ccc(CO*)cc1

Assays:
Experiment in all cases: inhibition of tumour cell growth, NCI panel, 48 h
UO-31 renal = test system: UO-31 renal
HCT-15 colon = test system: HCT-15 colon
ACHN renal = test system: ACHN renal
HS 578T breast = test system: HS 578T breast
NCI/ADR-RES ovarian = test system: NCI/ADR-RES ovarian
NCI-H460 lung = test system: NCI-H460 lung
EKVX NSCLC = test system: EKVX NSCLC
DU-145 prostate = test system: DU-145 prostate
MCF7 breast = test system: MCF7 breast
HCC-2998 colon = test system: HCC-2998 colon
OVCAR-5 ovarian = test system: OVCAR-5 ovarian
SN12C renal = test system: SN12C renal
MALME-3M melanoma = test system: MALME-3M melanoma
SNB-19 CNS = test system: SNB-19 CNS
BT-549 breast = test system: BT-549 breast
SF-539 CNS = test system: SF-539 CNS
KM12 colon = test system: KM12 colon
HT29 colon = test system: HT29 colon
K-562 leukemia = test system: K-562 leukemia
HL-60(TB) leukemia = test system: HL-60(TB) leukemia
SK-MEL-5 melanoma = test system: SK-MEL-5 melanoma
MDA-MB-231 breast = test system: MDA-MB-231 breast
OVCAR-4 ovarian = test system: OVCAR-4 ovarian
MDA-N = test system: MDA-N
COLO 205 colon = test system: COLO 205 colon
A498 renal = test system: A498 renal
TK-10 renal = test system: TK-10 renal
SNB-75 CNS = test system: SNB-75 CNS
NCI-H23 lung = test system: NCI-H23 lung
SR leukemia = test system: SR leukemia
786-0 renal = test system: 786-0 renal
NCI-H226 lung = test system: NCI-H226 lung
PC-3 prostate = test system: PC-3 prostate
M14 melanoma = test system: M14 melanoma
IGROV1 ovarian = test system: IGROV1 ovarian
SW-620 colon = test system: SW-620 colon
SK-OV-3 ovarian = test system: SK-OV-3 ovarian
A549 NSCLC = test system: A549 NSCLC
T-47D breast = test system: T-47D breast
SK-MEL-28 melanoma = test system: SK-MEL-28 melanoma
SK-MEL-2 melanoma = test system: SK-MEL-2 melanoma
HOP-62 NSCLC = test system: HOP-62 NSCLC
HCT-116 colon = test system: HCT-116 colon
NCI-H522 lung = test system: NCI-H522 lung
SF-295 CNS = test system: SF-295 CNS
SF-268 CNS = test system: SF-268 CNS
OVCAR-3 ovarian = test system: OVCAR-3 ovarian
UACC-257 melanoma = test system: UACC-257 melanoma
HOP-92 NSCLC = test system: HOP-92 NSCLC
RPMI-8226 leukemia = test system: RPMI-8226 leukemia
U251 CNS = test system: U251 CNS
UACC-62 melanoma = test system: UACC-62 melanoma
OVCAR-8 ovarian = test system: OVCAR-8 ovarian
RXF 393 renal = test system: RXF 393 renal
CCRF-CEM leukemia = test system: CCRF-CEM leukemia
MDA-MB-435 = test system: MDA-MB-435
CAKI-1 renal = test system: CAKI-1 renal
LOX IMVI melanoma = test system: LOX IMVI melanoma
MOLT-4 leukemia = test system: MOLT-4 leukemia
SNB-78 CNS = test system: SNB-78 CNS
DLD-1 colon = test system: DLD-1 colon
HOP-18 NSCLC = test system: HOP-18 NSCLC
LXFL 529 NSCLC = test system: LXFL 529 NSCLC
DMS 273 small cell lung = test system: DMS 273 small cell lung
XF 498 CNS = test system: XF 498 CNS
DMS 114 small cell lung = test system: DMS 114 small cell lung
M19-MEL melanoma = test system: M19-MEL melanoma
KM20L2 colon = test system: KM20L2 colon

CC(C)(C)OC(=O)NC(Cc1cnc[nH]1)C(=O)N1CCCC1C(N)=O (stereo unspecified)
TGI (UO-31 renal): > 100 µM | TGI (HCT-15 colon): > 100 µM | TGI (ACHN renal): > 100 µM | TGI (HS 578T breast): > 100 µM | TGI (NCI/ADR-RES ovarian): > 100 µM | TGI (NCI-H460 lung): > 100 µM | TGI (EKVX NSCLC): > 100 µM | TGI (DU-145 prostate): > 100 µM | TGI (MCF7 breast): > 100 µM | TGI (HCC-2998 colon): > 100 µM | TGI (OVCAR-5 ovarian): > 100 µM | TGI (SN12C renal): > 100 µM | TGI (MALME-3M melanoma): > 100 µM | TGI (SNB-19 CNS): > 100 µM | TGI (BT-549 breast): > 100 µM | TGI (SF-539 CNS): > 100 µM | TGI (KM12 colon): > 100 µM | TGI (HT29 colon): > 100 µM | TGI (K-562 leukemia): > 100 µM | TGI (HL-60(TB) leukemia): > 100 µM | TGI (SK-MEL-5 melanoma): > 100 µM | TGI (MDA-MB-231 breast): > 100 µM | TGI (OVCAR-4 ovarian): > 100 µM | TGI (MDA-N): > 100 µM | TGI (COLO 205 colon): > 100 µM | TGI (A498 renal): > 100 µM | TGI (TK-10 renal): > 100 µM | TGI (SNB-75 CNS): > 100 µM | TGI (NCI-H23 lung): > 100 µM | TGI (SR leukemia): > 100 µM | TGI (786-0 renal): > 100 µM | TGI (NCI-H226 lung): > 100 µM | TGI (PC-3 prostate): > 100 µM | TGI (M14 melanoma): > 100 µM | TGI (IGROV1 ovarian): > 100 µM | TGI (SW-620 colon): > 100 µM | TGI (SK-OV-3 ovarian): > 100 µM | TGI (A549 NSCLC): > 100 µM | TGI (T-47D breast): > 100 µM | TGI (SK-MEL-28 melanoma): > 100 µM | TGI (SK-MEL-2 melanoma): > 100 µM | TGI (HOP-62 NSCLC): > 100 µM | TGI (HCT-116 colon): > 100 µM | TGI (NCI-H522 lung): > 100 µM | TGI (SF-295 CNS): > 100 µM | TGI (SF-268 CNS): > 100 µM | TGI (OVCAR-3 ovarian): > 100 µM | TGI (UACC-257 melanoma): > 100 µM | TGI (HOP-92 NSCLC): > 100 µM | TGI (RPMI-8226 leukemia): > 100 µM | TGI (U251 CNS): > 100 µM | TGI (UACC-62 melanoma): > 100 µM | TGI (OVCAR-8 ovarian): > 100 µM | TGI (RXF 393 renal): 92.3 µM | TGI (CCRF-CEM leukemia): > 100 µM | TGI (MDA-MB-435): > 100 µM | TGI (CAKI-1 renal): > 100 µM | TGI (LOX IMVI melanoma): > 100 µM | TGI (MOLT-4 leukemia): > 100 µM

CC(C)C(C(=O)N1CCC[C@@H]1C(=O)OCc1ccccc1)N(C)C(=O)C(C(C)C)N(C)C(=O)[C@H](Cc1ccccc1)N(C)C(=O)[C@H](NC(=O)OC(C)(C)C)C(C)C (stereo partly specified) (Boc-[dV][NMeF][ξNMeV][ξNMeV][dP]-OBn)
TGI (SNB-78 CNS): > 100 µM | TGI (UO-31 renal): > 100 µM | TGI (HCT-15 colon): > 100 µM | TGI (DLD-1 colon): > 100 µM | TGI (ACHN renal): > 100 µM | TGI (NCI-H460 lung): > 100 µM | TGI (EKVX NSCLC): > 100 µM | TGI (HOP-18 NSCLC): > 100 µM | TGI (HCC-2998 colon): > 100 µM | TGI (OVCAR-5 ovarian): > 100 µM | TGI (SN12C renal): > 100 µM | TGI (MALME-3M melanoma): > 100 µM | TGI (SNB-19 CNS): > 100 µM | TGI (SF-539 CNS): > 100 µM | TGI (KM12 colon): > 100 µM | TGI (HT29 colon): > 100 µM | TGI (K-562 leukemia): > 100 µM | TGI (HL-60(TB) leukemia): > 100 µM | TGI (SK-MEL-5 melanoma): > 100 µM | TGI (LXFL 529 NSCLC): > 100 µM | TGI (OVCAR-4 ovarian): > 100 µM | TGI (COLO 205 colon): > 100 µM | TGI (A498 renal): > 100 µM | TGI (TK-10 renal): > 100 µM | TGI (SNB-75 CNS): > 100 µM | TGI (NCI-H23 lung): > 100 µM | TGI (SR leukemia): > 100 µM | TGI (786-0 renal): > 100 µM | TGI (NCI-H226 lung): > 100 µM | TGI (M14 melanoma): > 100 µM | TGI (IGROV1 ovarian): > 100 µM | TGI (SW-620 colon): > 100 µM | TGI (SK-OV-3 ovarian): > 100 µM | TGI (A549 NSCLC): > 100 µM | TGI (DMS 273 small cell lung): > 100 µM | TGI (SK-MEL-28 melanoma): > 100 µM | TGI (XF 498 CNS): > 100 µM | TGI (SK-MEL-2 melanoma): > 100 µM | TGI (HOP-62 NSCLC): > 100 µM | TGI (HCT-116 colon): > 100 µM | TGI (NCI-H522 lung): > 100 µM | TGI (SF-295 CNS): > 100 µM | TGI (SF-268 CNS): > 100 µM | TGI (DMS 114 small cell lung): > 100 µM | TGI (M19-MEL melanoma): > 100 µM | TGI (OVCAR-3 ovarian): > 100 µM | TGI (UACC-257 melanoma): > 100 µM | TGI (HOP-92 NSCLC): > 100 µM | TGI (RPMI-8226 leukemia): > 100 µM | TGI (U251 CNS): > 100 µM | TGI (UACC-62 melanoma): > 100 µM | TGI (OVCAR-8 ovarian): > 100 µM | TGI (RXF 393 renal): > 100 µM | TGI (CCRF-CEM leukemia): > 100 µM | TGI (KM20L2 colon): > 100 µM | TGI (LOX IMVI melanoma): > 100 µM | TGI (MOLT-4 leukemia): > 100 µM
